Measured values taken from ChEMBL document CHEMBL4118155, “A naphthalene diimide G-quadruplex ligand inhibits cell growth and down-regulates BCL-2 expression in an imatinib-resistant gastrointestinal cancer cell line” (Bioorg Med Chem, 2018).
Calls of active or inactive are those of the source. The rule behind the calls is not given here.

Tests used:
[1] = Stabilization of 5'-FAM/3'-TAMRA labeled 5'-UTR BCL-2 G-quadruplex RNA (unknown origin) assessed as melting temperature at 0.5 uM in presence of NaCl by FRET assay
[2] = Antiproliferative activity against imatinib-resistant human GIST48 cells harboring c-KIT V560D/D820A double mutant after 96 hrs by SRB assay; type: functional; details: GIST48, 96 h
[3] = system: Quadruplex DNA; assay: Stabilization of 5'-FAM/3'-TAMRA labeled c-KIT1 G-quadruplex DNA (unknown origin) assessed as change in melting temperature at 0.5 uM by FRET assay; type: nucleic-acid assay
[4] = system: HGC-27; assay: Antiproliferative activity against human HGC27 cells after 96 hrs by SRB assay; type: functional, cell-based; details: HGC-27, 96 h
[5] = biological target: Telomerase reverse transcriptase (Homo sapiens) (UniProt O14746); assay: Inhibition of telomerase activity in imatinib-resistant human GIST48 cells harboring c-KIT V560D/D820A double mutant at 0.05 to 0.30 uM incubated for 1 week by Sybr green staining based TRAP-PCR method
[6] = Antiproliferative activity against imatinib-susceptible human GIST882 cells harboring c-KIT K642E mutant after 96 hrs by SRB assay; type: functional; details: GIST882, 96 h
[7] = system: Quadruplex DNA; assay: Stabilization of 5'-FAM/3'-TAMRA labeled human F21T G-quadruplex DNA assessed as change in melting temperature at 0.5 uM by FRET assay; type: nucleic-acid assay
[8] = Antiproliferative activity against imatinib-resistant human GIST62 cells after 96 hrs by SRB assay; type: functional
[9] = biological target: Telomerase reverse transcriptase (Homo sapiens) (UniProt O14746); assay: Inhibition of telomerase activity in imatinib-susceptible human GIST882 cells harboring c-KIT K642E mutant at 0.5 uM incubated for 1 week by Sybr green staining based TRAP-PCR method
[10] = Stabilization of 5'-FAM/3'-TAMRA labeled 5'-UTR BCL-2 G-quadruplex RNA (unknown origin) assessed as change in melting temperature at 0.5 uM by FRET assay
[11] = system: Quadruplex DNA; assay: Stabilization of c-KIT G-quadruplex DNA in imatinib-resistant human GIST48 cells harboring c-KIT V560D/D820A double mutant assessed as downregulation of c-KIT protein expression at 1 uM after 1 week by immunoblot analysis relative to control
[12] = system: dsDNA; assay: Stabilization of 5'-FAM/3'-TAMRA labeled duplex DNA (unknown origin) assessed as change in melting temperature at 0.5 uM by FRET assay; type: nucleic-acid assay
[13] = system: Quadruplex DNA; assay: Stabilization of c-KIT G-quadruplex DNA in imatinib-susceptible human GIST882 cells harboring c-KIT K642E mutant assessed as downregulation of c-KIT protein expression at 1 uM after 24 hrs by immunoblot analysis relative to control
[14] = system: HT-29; assay: Antiproliferative activity against human HT-29 cells after 96 hrs by SRB assay; type: functional, cell-based; details: HT-29, 96 h
[15] = Stabilization of 5'-UTR BCL-2 G-quadruplex RNA (unknown origin) transfected in imatinib-susceptible human GIST882 cells harboring c-KIT K642E mutant assessed as decrease in RNA translation by dual luciferase reporter gene assay
[16] = Stabilization of 5'-FAM/3'-TAMRA labeled 5'-UTR BCL-2 G-quadruplex RNA (unknown origin) assessed as melting temperature at 0.5 uM in presence of KCl by FRET assay
[17] = system: Quadruplex DNA; assay: Stabilization of c-KIT G-quadruplex DNA in imatinib-resistant human GIST48 cells harboring c-KIT V560D/D820A double mutant assessed as downregulation of c-KIT protein expression at 1 uM after 24 hrs by immunoblot analysis relative to control
[18] = species on record: Homo sapiens; assay: Stabilization of 5'-UTR BCL-2 G-quadruplex RNA in imatinib-resistant human GIST48 cells harboring c-KIT V560D/D820A double mutant at 0.3 uM after 1 week by immunoblot analysis relative to control
[19] = system: Quadruplex DNA; assay: Stabilization of 5'-FAM/3'-TAMRA labeled BCL-2 promoter G-quadruplex DNA (unknown origin) assessed as change in melting temperature at 0.5 uM by FRET assay; type: nucleic-acid assay
[20] = system: Quadruplex DNA; assay: Stabilization of 5'-FAM/3'-TAMRA labeled c-KIT2 G-quadruplex DNA (unknown origin) assessed as change in melting temperature at 0.5 uM by FRET assay; type: nucleic-acid assay
[21] = Stabilization of 5'-UTR BCL-2 G-quadruplex RNA (unknown origin) transfected in imatinib-susceptible human GIST882 cells harboring c-KIT K642E mutant assessed as decrease in RNA translation at 10 uM by dual luciferase reporter gene assay relative to control; parameters: scale not given: the % may be the effect or the level left
[22] = system: MCF7; assay: Antiproliferative activity against human MCF7 cells after 96 hrs by SRB assay; type: functional, cell-based; details: MCF7, 96 h

Chain of Telomerase reverse transcriptase (Homo sapiens) (O14746 whole entry): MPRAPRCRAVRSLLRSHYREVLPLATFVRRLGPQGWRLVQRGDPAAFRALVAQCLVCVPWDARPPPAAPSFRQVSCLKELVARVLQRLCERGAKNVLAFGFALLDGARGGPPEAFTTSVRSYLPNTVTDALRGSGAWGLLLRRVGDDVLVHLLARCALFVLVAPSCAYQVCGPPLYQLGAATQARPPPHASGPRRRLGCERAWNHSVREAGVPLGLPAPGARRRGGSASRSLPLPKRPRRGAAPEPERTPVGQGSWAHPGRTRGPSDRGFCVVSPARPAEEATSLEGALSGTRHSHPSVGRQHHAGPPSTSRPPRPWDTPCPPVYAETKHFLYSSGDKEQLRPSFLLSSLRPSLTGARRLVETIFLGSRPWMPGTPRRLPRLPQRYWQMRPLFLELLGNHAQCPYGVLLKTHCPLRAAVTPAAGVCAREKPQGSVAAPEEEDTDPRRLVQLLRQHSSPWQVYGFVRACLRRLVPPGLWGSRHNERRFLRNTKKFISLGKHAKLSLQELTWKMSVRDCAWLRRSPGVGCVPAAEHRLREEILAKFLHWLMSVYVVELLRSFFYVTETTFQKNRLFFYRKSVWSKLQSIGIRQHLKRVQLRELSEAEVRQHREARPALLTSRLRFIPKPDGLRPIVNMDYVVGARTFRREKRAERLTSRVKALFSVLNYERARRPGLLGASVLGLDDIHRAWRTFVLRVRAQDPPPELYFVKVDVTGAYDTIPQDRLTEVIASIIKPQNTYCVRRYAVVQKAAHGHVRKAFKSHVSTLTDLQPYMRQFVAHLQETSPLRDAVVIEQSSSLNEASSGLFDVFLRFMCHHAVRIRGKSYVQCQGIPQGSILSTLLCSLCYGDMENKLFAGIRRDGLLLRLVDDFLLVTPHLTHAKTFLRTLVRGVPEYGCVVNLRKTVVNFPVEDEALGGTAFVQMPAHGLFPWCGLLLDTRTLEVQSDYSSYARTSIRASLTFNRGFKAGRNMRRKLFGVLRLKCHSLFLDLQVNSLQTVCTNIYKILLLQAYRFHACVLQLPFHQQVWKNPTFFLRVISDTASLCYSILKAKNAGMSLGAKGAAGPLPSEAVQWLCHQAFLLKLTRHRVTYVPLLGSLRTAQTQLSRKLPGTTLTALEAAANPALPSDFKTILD

Row | ΔTm [3] [°C] | ΔTm [7] [°C] | ΔTm [10] [°C] | ΔTm [12] [°C] | ΔTm [19] [°C] | ΔTm [20] [°C] | SMILES | IC50 [2] [nM] | IC50 [4] [nM] | IC50 [6] [nM] | IC50 [8] [nM] | other results
1 | 11.2 | 29.7 | 10.7 | 3.5 | 27.6 | 29 | O=C1c2cc(NCCN3CCCC3)c3c4c(cc(NCCN5CCCC5)c(c24)C(=O)N1CCN1CCCC1)C(=O)N(CCN1CCCC1)C3=O | 500 | 100 | 1600 | 400 | Tm [1]: 64.5 °C; inhibition [5]: inactive; inhibition [9]: Active; Activity [11]: 37%; Activity [13]: 90%; IC50 [14]: 40 nM; Activity [15]: Dose-dependent effect; Tm [16]: 91 °C; Activity [17]: 17%; Activity [18]: 85%; Activity [21]: 30%
2 | 6.5 | 21.6 |  | 7.2 | 17.9 | 18.5 | CN(C)c1ccc(Nc2c3ccc(NC(=O)CCN4CCCC4)cc3nc3cc(NC(=O)CCN4CCCC4)ccc23)cc1 | > 25000 | 2300 | > 25000 | > 25000 | 
3 | 0.2 | 0.2 | 0.1 | 0.1 | 0.1 | 0.2 | Cc1ccc(NC(=O)c2ccc(CN3CCN(C)CC3)cc2)cc1Nc1nccc(-c2cccnc2)n1 [IMATINIB] | 19800 |  | 1700 | > 25000 | IC50 [22]: 11300 nM
